Reference: patent US20100215625A1, “EFFICIENT PREPARATION OF NAPHTHOQUINONE ANTICANCER ACTIVE INGREDIENTS” (TAHEEBO JAPAN CO., LTD., priority 2009, published 2010)

Key:
various tumor cells = details: known from Patent Documents 1, 2 and Nonpatent Document 1; cited from earlier work
[1] = test system: A-549 cells (lung cancer cells); assay: Cytotoxicity experiment 1: anticancer activity against A-549 cells, viable cell count after 3 days; details: Homo sapiens, A549, 72 h, read-out: Cell Viabilities (%) of A-549 (Lung Cancer Cells)
Protocol: A-549 cells (lung cancer cells; Strain No. ECACC86012804; available from Laboratory Products Dept. of Dainippon Pharmaceuticals Inc. (now Dainippon Sumitomo Pharma Co., Ltd.)) were preliminarily seeded in 35 mm petri dishes containing Dulbecco's modified Eagle medium (DMEM) containing 20% of fetal bovine serum (FBS) in a concentration of 1×10^5/ml. The seeded cells were incubated at 36° C. for 1 day under 5% CO2 and were confirmed to be stuck at the bottom of the petri dishes. The resulting A-549 cells were divided into three groups, to the first group of which were added extracts from a medium used in the ingredient-production system in concentrations of 1, 10, 100 and 1000 μg/ml, to the second group of which was added NQ801 which was known to have an anticancer activity (see Patent Document 2) in said concentrations, and to the third group of which were added ether fractions extracted from Tabebuia avellanedae barks in a conventional manner in said concentrations. These groups were incubated at 36° C. for 3 days, and viable cells were counted and viabilities were calculated.

[2] = test system: MCF-7 cells (breast cancer cells); assay: Cytotoxicity experiment 2: anticancer activity against MCF-7 cells, viable cell count after 3 days; details: Homo sapiens, MCF7, 72 h, read-out: Cell Viabilities (%) of MCF-7 (Breast Cancer Cells)
Protocol: A-549 cells (lung cancer cells; Strain No. ECACC86012804; available from Laboratory Products Dept. of Dainippon Pharmaceuticals Inc. (now Dainippon Sumitomo Pharma Co., Ltd.)) were preliminarily seeded in 35 mm petri dishes containing Dulbecco's modified Eagle medium (DMEM) containing 20% of fetal bovine serum (FBS) in a concentration of 1×10^5/ml. The seeded cells were incubated at 36° C. for 1 day under 5% CO2 and were confirmed to be stuck at the bottom of the petri dishes. […] These groups were incubated at 36° C. for 3 days, and viable cells were counted and viabilities were calculated.
Cytotoxicity experiments for MCF-7 cells (breast cancer cells; Strain No. ECACC86012803; available from Laboratory Products Dept. of Dainippon Pharmaceuticals Inc. (now Dainippon Sumitomo Pharma Co., Ltd.)) were carried out in the similar manner to the Experiment 1.

For `C[C@H](O)c1cc2c(o1)C(=O)c1cccc(O)c1C2=O` [NQ801, (S)-2-(1-hydroxyethyl)-5-hydroxynaphtho[2,3-b]furan-4,9-dione], the “Cytotoxicity against various tumor cells” value (various tumor cells) is listed as “potent cytotoxicity”, the viability at 1 µg/mL [1] is listed as 90% and the viability at 10 µg/mL [1] is listed as 60%. It also gave a viability at 100 µg/mL [1] of 30%, a viability at 1000 µg/mL [1] of 0% and a viability at 1 µg/mL [2] of 90%. For the same compound, the viability at 10 µg/mL [2] was 60%, the viability at 100 µg/mL [2] was 20% and the viability at 1000 µg/mL [2] was 0%.
